The text below walks through data of PubChem BioAssay (NCI).

Molecules are shown by their SMILES. Where “and” joins values, the source holds several entries; their conditions need not be identical. Identical values can stand only once.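 Five compound concentrations were applied to cells in 96-well plates for 48 hours; endpoints were derived by simple linear interpolation of the resulting dose-response curve. GI50 = concentration required for 50% inhibition of growth. TGI: total growth inhibition.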 A value given as a limit tells only on which side of the number the result lay.

What all share (experiment): growth of human tumour cells (NCI), 48 h
For test [1], the system named is HCT-116 colon.
Test [2] relates to M14 melanoma.
Test [3] has as its system CCRF-CEM leukemia.
The subject of test [4] is SF-539 CNS.
The subject of test [5] is SF-295 CNS.
In test [6] the test system is UO-31 renal.
In test [7] the test system is OVCAR-5 ovarian.
Test [8] has as its system NCI-H460 lung.
Test [9] deals with A498 renal.
Test [10] relates to CAKI-1 renal.

With `COc1ccc(CC(=O)NCCc2ccc(OC)c(OC)c2OC)cc1`, the TGI in test [1] was over 100 µM; in test [2], over 100 µM; in test [3] it was over 100 µM; in test [4] it was 36.7 µM; in [5], over 100 µM; in test [6] it was over 100 µM. Further, the TGI in test [7], in test [8] and in test [9] was over 100 µM each time.
As to `O=C1c2ccccc2-c2c3c(cc4ccnc1c24)OCO3`, the TGI in [10] is 28.1 µM and 15.5 µM; in test [1] it was 33.3 µM and 33.6 µM; in test [2], over 100 µM; in test [3], 39 µM and 20.7 µM; in test [4], 53.5 µM and 37.8 µM; in test [5] it was 33.6 µM and 48.4 µM. The TGI was 23.9 µM and 14.8 µM in test [6]; 37.8 µM and 57.6 µM in [7]; 19.6 µM and 16.4 µM in test [8]; 12.8 µM in test [9]. Further, in test [4], the GI50 was 7.97 µM and 3.53 µM.
With `COc1ccc(-c2ncnc3c2ncn3CC#CCCl)cc1`, the GI50 is 1.47 µM in [10]; 3.5 µM in test [1]; 4.55 µM in test [2]; 3.84 µM in test [3]; 6.48 µM in test [4]; 2.35 µM in test [5]. The GI50 in test [6] is 2.43 µM; in test [7], 3.25 µM; in [8], 3.27 µM; in [9] it was 2.15 µM. Also, the TGI in test [10] is 3.11 µM; in test [1] it was 14.7 µM; in test [2], 17.4 µM; in test [3], 42.7 µM; in test [4], 20.9 µM; in [5], 7.15 µM. Also, the TGI came to 15.3 µM in test [6], 12.1 µM in test [7], 12.4 µM in test [8] and 12.5 µM in [9].
With `O=C(O)Cc1cccc2c(=O)cc(-c3ccccc3)oc12`, the GI50 in test [10] was > 46.8 µM and 163 µM; in [1], 294 µM; in [2] it was 519 µM; in [3] it was > 49.6 µM and 29.8 µM; in test [4], 398 µM; in [5], 400 µM. For the same compound, the GI50 in test [6] was 25.5 µM; in test [7], over 1000 µM; in [8] it was 545 µM; in test [9], 307 µM. Also, the TGI in test [10] is > 72 µM and 194 µM and 420 µM; in test [1], 212 µM and > 868 µM; in test [2], over 1000 µM; in [3] it was 237 µM and 747 µM; in test [4], > 250 µM and 838 µM; in test [5] it was 250 µM and > 1000 µM. The TGI in test [6] was > 64.4 µM and 174 µM and 334 µM; in test [7], 250 µM and > 1000 µM; in [8], over 1000 µM; in [9] it was 250 µM and 979 µM.
In the case of `CCOC(=O)c1ccc(-n2cnc(-c3ccc([N+](=O)[O-])cc3)c2)cc1`, the TGI in test [10], in test [1], in [2], in [3], in test [4] and in test [5] was over 100 µM each time. For the same compound, the TGI in test [6], in test [7], in test [8] and in [9] was over 100 µM throughout.
Consider `CC(C)(C)C(=O)N1C(C(=O)O)Cc2ccccc2[C@@H]1Cc1ccccc1` (some centres undefined), for which the TGI in test [10], in test [1], in test [2], in test [3], in [4] and in test [5] was over 100 µM in each case. Moreover, the TGI in [7], in [8] and in [9] was over 100 µM throughout.
As for `O=C1c2c(c(=O)[nH]c3ccccc23)[C@H](c2ccccc2)[C@@H]2CCCN12`, the GI50 is 17.6 µM in test [10]; 2.54 µM in [1]; 3.53 µM in test [2]; 4.61 µM in test [3]; 2.6 µM in [4]; 8.72 µM in [5]. Also, the GI50 in test [6] is 2.1 µM; in test [7], 2.7 µM; in test [8], 2.83 µM; in test [9], 1.93 µM. The TGI in test [10] was 68.2 µM; in test [1] it was over 100 µM; in [2], 14.5 µM; in test [3], over 100 µM; in test [4], 6.7 µM; in [5], 47.8 µM. The TGI in test [6] was 7.05 µM; in test [7], 9.59 µM; in test [8], 16.5 µM; in [9], 9.09 µM.
In the case of `NCCCCC(NC(=O)C(N)CCCN=C(N)N)C(=O)NC(CCCCN)C(=O)NC(CCCN=C(N)N)C(=O)NC(CCCN=C(N)N)C(=O)NC(CCC(N)=O)C(=O)NC(CCCN=C(N)N)C(=O)NC(CCCN=C(N)N)C(=O)NC(CCCN=C(N)N)C(=O)NCC(=O)NCC(=O)O` (centres undefined), the GI50 in [10] was over 50 µM; in [1], over 50 µM; in test [2], over 50 µM; in test [3], 1.53 µM; in [4] it was over 50 µM; in test [5], over 50 µM. Besides, the GI50 in test [6], in test [7], in test [8] and in test [9] was over 50 µM in each case. Also, the TGI is over 50 µM in [10]; over 50 µM in [1]; over 50 µM in test [2]; 8.52 µM in test [3]; over 50 µM in test [4]; over 50 µM in test [5]. Further, the TGI in [6], in test [7], in [8] and in test [9] was over 50 µM each time.
On to `COc1cc2nc(Nc3cccc(Cl)c3)nc(N)c2cc1OC`, for which the GI50 is 12.3 µM in test [10]; 2.34 µM in test [1]; 1.87 µM in [2]; 2.36 µM in test [3]; 10.2 µM in [4]; 4.37 µM in test [5]. The GI50 in [6] is 6.66 µM; in test [7] it was 17.2 µM; in test [8], 4.09 µM; in test [9], 6.57 µM. The TGI was 27.9 µM in test [10]; 6.35 µM in [1]; 3.73 µM in [2]; 7.3 µM in test [3]; 22.8 µM in test [4]; over 36.3 µM in test [5]. Further, the TGI in test [6] came to 20.9 µM; in [7] it was 35.4 µM; in test [8], 15.5 µM; in test [9], 20.1 µM.
